# Measurements as given in patent US20240408162A1, “Use of Extract from Morus alba L. in the Preparation of a Medicament for Preventing and/or Treating a Hepatobiliary Disease” (BEIJING WEHAND-BIO PHARMACEUTICAL CO., LTD, priority 2022, published 2024).
# How the values were obtained:
# 3T3-L1 adipocytes = test: Secretion of adiponectin in 3T3-L1 adipocytes (ELISA of supernatant); assay type: cell-based; conditions: DNJ 80, 40, 20 μg/ml; summary statement
# Experimental: Reduced adiponectin levels were independent risk factors for NAFLD and liver dysfunction. Adiponectin might activate liver AMPK, inhibit lipid synthesis, and promote lipid oxidation. Adiponectin might also affect inflammation of hepatic macrophages and fibrosis of hepatic stellate cells. 3T3-L1 pre-adipocytes were cultured in the medium containing calf serum and seeded into a 6-well plate at a density of 2×10^4 cells/ml. […] The supernatant was collected after culture for 8 days, and the concentration of adiponectin in the supernatant was detected using an ELISA kit.
# HepG2 hepatocytes = test: Palmitic acid-treated HepG2 hepatocytes (non-alcoholic fatty liver model), triglyceride and cholesterol by kit; assay type: cell-based; conditions: PA-treated HepG2, 24 h, DNJ 20 μg/ml
# Experimental: HepG2 hepatocytes were cultured overnight in a 6-well plate at a seeding density of 2×10^5 cells/ml after digestion. HepG2 cells were treated with palmitic acid (PA) to create a non-alcoholic fatty liver model, with 0.25% BSA treatment as a control. Cells in the model groups were separately administrated with extracts from Morus alba L. (designed to be 25 μg/ml (containing 17 μg/ml DNJ) based on total alkaloids (SZ-A)) obtained from Example 1, 20 μg/ml DNJ, 5 μg/ml FAG, or 5 μg/ml DAB, and cultured for 24 h. Cells were lysed with the lysis solution containing Triton x-100 after removal of the supernatant, and the triglyceride (TG) and cholesterol (TC) in hepatocytes were detected using a kit.
compound,measurement,setting,value
"OC[C@H]1NC[C@H](O)[C@@H](O)[C@@H]1O [DNJ, 1-deoxynojirimycin]",concentration of adiponectin,3T3-L1 adipocytes,increase the concentration of adiponectin
same,triglyceride (TG) level in hepatocytes,HepG2 hepatocytes; SZ-A 25 μg/ml (based on total alkaloids),reduce the triglyceride level
same,cholesterol (TC) level in hepatocytes,HepG2 hepatocytes; SZ-A 25 μg/ml,reduced the cholesterol level
